Assays:
[1] = log P by HPLC on reversed phase columns (EEC directive 79/831 Annex V.A8); type: physicochemical; settings: Table 1, formula (I); HPLC/LC-MS at pH 2.7, 0.1% formic acid in water / acetonitrile, gradient 10% to 95%
[2] = tested on: Alternaria brassicae; test: In vivo preventive test on Alternaria brassicae (leaf spot on radish); settings: dose 500 ppm, spray, graded 6 days after contamination vs control plants
Summary of the method: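 Radish cv. Pernod Clair at cotyledon stage (grown 17 °C) sprayed with compound in acetone/tween/DMSO/water, then inoculated 24 h later with A. brassicae spores (50 000 spores per ml). Incubation 20 °C, 100% RH; % efficacy graded 6 days post-inoculation versus solvent-treated controls.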

[3] = tested on: Puccinia recondita; test: In vivo preventive test on Puccinia recondita (brown rust on wheat)
Summary of the method: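 Wheat seedlings ("Scipion") sprayed with compound at the 1-leaf stage, inoculated 24 h later with Puccinia recondita spores (100 000 spores per ml). Incubated 24 h at 20° C and 100% RH, then 10 days at 20° C and 70-80% RH. Efficacy (%) versus solvent-treated controls graded 12 days after contamination.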

[4] = tested on: Septoria tritici; test: In vivo preventive test on Septoria tritici (leaf spot on wheat); settings: 500 ppm, preventive spray, wheat plants, grading 24 days after contamination
Summary of the method: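 Wheat cv. Scipion sprayed preventively at 1-leaf stage; inoculated 24 h later with Septoria tritici spores (500 000 spores per ml). Incubation 72 h at 18 °C, 100% RH, then 21 days at 90% RH; % efficacy graded 24 days after contamination against solvent-treated controls.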

[5] = tested on: Sphaerotheca fuliginea; test: In vivo preventive test on Sphaerotheca fuliginea (powdery mildew on cucurbits)
Summary of the method: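 Gherkin plants at Z11 cotyledon stage were sprayed with compound in acetone/tween/DMSO/water. After 24 h they were inoculated with S. fuliginea spores (100 000 spores per ml) and incubated at about 20° C and 70-80% RH. Percent efficacy versus solvent-treated controls was scored 12 days post-inoculation.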

[6] = tested on: Uromyces appendiculatus; test: In vivo preventive test on Uromyces appendiculatus (bean rust); settings: 500 ppm, preventive spray, bean plants, grading 11 days after contamination
Summary of the method: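 'Saxa' bean plants at the 2-leaf stage were sprayed with compound and inoculated 24 h later with U. appendiculatus spores (150 000 spores per ml). Plants were incubated 24 h at 20 °C and 100% RH, then 10 days at 20 °C and 70–80% RH. Percent efficacy versus solvent-treated controls was graded 11 days post-inoculation.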

[7] = tested on: Phakopsora pachyrhizi; test: Phakopsora test (soybeans)/preventive; type: in vivo; settings: 100 ppm of active ingredient, evaluated 7 days after inoculation
Protocol: Phakopsora Test (Soybeans)/Preventive
(§1) To produce a suitable preparation of active compound, 1 part by weight of active compound is mixed with the stated amounts of solvent and emulsifier, and the concentrate is diluted with water to the desired concentration.
(§2) To test for preventive activity, young plants are sprayed with the preparation of active compound at the stated rate of application. After the spray coating has dried on, the plants are inoculated with an aqueous spore suspension of the causal agent of soybean rust (Phakopsora pachyrhizi) and stay for 24 h without light in an incubation cabinet at approximately 24° C. and a relative atmospheric humidity of 95%.
The plants remain in the incubation cabinet at approximately 24° C. and a relative atmospheric humidity of approximately 80% and a day/night interval of 12 h.
The test is evaluated 7 days after the inoculation. 0% means an efficacy which corresponds to that of the untreated control, while an efficacy of 100% means that no disease is observed.

[8] = tested on: Venturia inaequalis; test: Venturia test (apples)/preventive; type: in vivo; settings: 100 ppm of active ingredient, evaluated 10 days after inoculation
Protocol: Venturia Test (Apples)/Preventive
as §1
as §2, with “conidia” for “spore”, “apple scab (Venturia inaequalis)” for “soybean rust (Phakopsora pachyrhizi)”, “then remain” for “stay”, “1 day” for “24 h without light”, “20°” for “24°”, “100%.” for “95%.”
The plants are then placed in a greenhouse at approximately 21° C. and a relative atmospheric humidity of approximately 90%.
The test is evaluated 10 days after the inoculation. 0% means an efficacy which corresponds to that of the untreated control, while an efficacy of 100% means that no disease is observed.

[9] = dose 100 ppm of active ingredient, comparison with known compounds

In the case of `CC1CC(C)(C)c2cccc(NC(=O)c3cccnc3C(F)F)c21` (stereo not drawn) [Example 1], the “logP^[a]” value [1] is reported as 3.29^[a], the Eff. % [2] is reported as 92% and the “protection (in words)” value [3, 9] is reported as “total protection”. The Efficacy ([3]; dose 100 ppm, comparison with known compounds, same conditions) was 100%, the Eff. % ([3]; dose 500 ppm, wheat, spray, graded 12 days after contamination vs control plants) was 100% and the Eff. % [4] was 100%. For the same compound, the Eff. % ([5]; 500 ppm, preventive spray, gherkin plants, grading 12 days after contamination) was 100%, the “protection (in words)” value [5, 9] was “total protection” and the Efficacy ([5]; dose 100 ppm, comparison with prior-art compounds, gherkin plants, grading 12 days after contamination) was 100%. For the same compound, the Eff. % [6] was 100%, the Eff. % [7] was 99% and the Eff. % [8] was 100%.
